According to ChEMBL document CHEMBL1150401, “Genotoxicity of alpha-asarone analogues” (Bioorg Med Chem, 2008):

Legend:
Salmonella typhimurium [1] = assay: Cytotoxicity against Salmonella Typhimurium TA102 assessed as reduction in his+ revertants number at 500 ug/plate after 48 to 72 hrs in presence of S9 fraction; format: functional, Salmonella enterica subsp. enterica serovar Typhimurium; set-up: scale not given: the % may be the effect or the level left
L929 [2] = assay: Genotoxicity against mouse L929 cells assessed as number of micronuclei at 100 ug/ml; format: toxicity, cell-based
Salmonella typhimurium [3] = assay: Mutagenic activity in Salmonella Typhimurium TA97 assessed as number of his+ revertants at 500 ug/plate after 48 to 72 hrs by Ames test in presence of S9 fraction; format: toxicity, organism-based; details: salmonella enterica subsp. enterica serovar typhimurium
Salmonella typhimurium [4] = assay: Mutagenic activity in Salmonella Typhimurium TA97 assessed as number of his+ revertants at 100 ug/plate after 48 to 72 hrs by Ames test in absence of S9 fraction; format: toxicity, organism-based; details: salmonella enterica subsp. enterica serovar typhimurium
Salmonella typhimurium [5] = assay: Mutagenic activity in Salmonella Typhimurium TA102 assessed as number of his+ revertants at 100 ug/plate after 48 to 72 hrs by Ames test in presence of S9 fraction; format: toxicity, organism-based; details: salmonella enterica subsp. enterica serovar typhimurium
Salmonella typhimurium [6] = assay: Mutagenic activity in Salmonella Typhimurium TA102 assessed as number of his+ revertants at 1000 ug/plate after 48 to 72 hrs by Ames test in absence of S9 fraction; format: toxicity, organism-based; details: salmonella enterica subsp. enterica serovar typhimurium
Salmonella typhimurium [7] = assay: Mutagenic activity in Salmonella Typhimurium TA100 assessed as number of his+ revertants at 100 ug/plate after 48 to 72 hrs by Ames test in presence of S9 fraction; format: toxicity, organism-based; details: salmonella enterica subsp. enterica serovar typhimurium
Salmonella typhimurium [8] = assay: Mutagenic activity in Salmonella Typhimurium TA98 assessed as number of his+ revertants at 500 ug/plate after 48 to 72 hrs by Ames test in presence of S9 fraction; format: toxicity, organism-based; details: salmonella enterica subsp. enterica serovar typhimurium
Salmonella typhimurium [9] = assay: Cytotoxicity against Salmonella Typhimurium TA97 assessed as reduction in his+ revertants number at 500 ug/plate after 48 to 72 hrs in presence of S9 fraction; format: functional, Salmonella enterica subsp. enterica serovar Typhimurium; set-up: scale not given: the % may be the effect or the level left
Salmonella typhimurium [10] = assay: Cytotoxicity against Salmonella Typhimurium TA100 assessed as reduction in his+ revertants number at 500 ug/plate after 48 to 72 hrs in presence of S9 fraction; format: functional, Salmonella enterica subsp. enterica serovar Typhimurium; set-up: scale not given: the % may be the effect or the level left
Salmonella typhimurium [11] = assay: Mutagenic activity in Salmonella Typhimurium TA97 assessed as number of his+ revertants at 100 ug/plate after 48 to 72 hrs by Ames test in presence of S9 fraction; format: toxicity, organism-based; details: salmonella enterica subsp. enterica serovar typhimurium
Salmonella typhimurium [12] = assay: Mutagenic activity in Salmonella Typhimurium TA98 assessed as number of his+ revertants at 500 ug/plate after 48 to 72 hrs by Ames test in absence of S9 fraction; format: toxicity, organism-based; details: salmonella enterica subsp. enterica serovar typhimurium
Salmonella typhimurium [13] = assay: Mutagenic activity in Salmonella Typhimurium TA102 assessed as number of his+ revertants at 500 ug/plate after 48 to 72 hrs by Ames test in absence of S9 fraction; format: toxicity, organism-based; details: salmonella enterica subsp. enterica serovar typhimurium
Salmonella typhimurium [14] = assay: Mutagenic activity in Salmonella Typhimurium TA100 assessed as number of his+ revertants at 100 ug/plate after 48 to 72 hrs by Ames test in absence of S9 fraction; format: toxicity, organism-based; details: salmonella enterica subsp. enterica serovar typhimurium
Salmonella typhimurium [15] = assay: Mutagenic activity in Salmonella Typhimurium TA102 assessed as number of his+ revertants at 500 ug/plate after 48 to 72 hrs by Ames test in presence of S9 fraction; format: toxicity, organism-based; details: salmonella enterica subsp. enterica serovar typhimurium
Salmonella typhimurium [16] = assay: Mutagenic activity in Salmonella Typhimurium TA98 assessed as number of his+ revertants at 100 ug/plate after 48 to 72 hrs by Ames test in presence of S9 fraction; format: toxicity, organism-based; details: salmonella enterica subsp. enterica serovar typhimurium
Salmonella typhimurium [17] = assay: Mutagenic activity in Salmonella Typhimurium TA98 assessed as number of his+ revertants at 1000 ug/plate after 48 to 72 hrs by Ames test in absence of S9 fraction; format: toxicity, organism-based; details: salmonella enterica subsp. enterica serovar typhimurium
Salmonella typhimurium [18] = assay: Mutagenic activity in Salmonella Typhimurium TA97 assessed as number of his+ revertants at 500 ug/plate after 48 to 72 hrs by Ames test in absence of S9 fraction; format: toxicity, organism-based; details: salmonella enterica subsp. enterica serovar typhimurium
Salmonella typhimurium [19] = assay: Cytotoxicity against Salmonella Typhimurium TA98 assessed as reduction in his+ revertants number at 500 ug/plate after 48 to 72 hrs in presence of S9 fraction; format: functional, Salmonella enterica subsp. enterica serovar Typhimurium; set-up: scale not given: the % may be the effect or the level left
Salmonella typhimurium [20] = assay: Mutagenic activity in Salmonella Typhimurium TA102 assessed as number of his+ revertants at 100 ug/plate after 48 to 72 hrs by Ames test in absence of S9 fraction; format: toxicity, organism-based; details: salmonella enterica subsp. enterica serovar typhimurium
Salmonella typhimurium [21] = assay: Mutagenic activity in Salmonella Typhimurium TA100 assessed as number of his+ revertants at 500 ug/plate after 48 to 72 hrs by Ames test in presence of S9 fraction; format: toxicity, organism-based; details: salmonella enterica subsp. enterica serovar typhimurium
Salmonella typhimurium [22] = assay: Mutagenic activity in Salmonella Typhimurium TA100 assessed as number of his+ revertants at 1000 ug/plate after 48 to 72 hrs by Ames test in absence of S9 fraction; format: toxicity, organism-based; details: salmonella enterica subsp. enterica serovar typhimurium
Salmonella typhimurium [23] = assay: Mutagenic activity in Salmonella Typhimurium TA98 assessed as number of his+ revertants at 1000 ug/plate after 48 to 72 hrs by Ames test in presence of S9 fraction; format: toxicity, organism-based; details: salmonella enterica subsp. enterica serovar typhimurium
Salmonella typhimurium [24] = assay: Cytotoxicity against Salmonella Typhimurium TA102 assessed as reduction in his+ revertants number at 500 ug/plate after 48 to 72 hrs in absence of S9 fraction; format: functional, Salmonella enterica subsp. enterica serovar Typhimurium; set-up: scale not given: the % may be the effect or the level left
Salmonella typhimurium [25] = assay: Cytotoxicity against Salmonella Typhimurium TA100 assessed as reduction in his+ revertants number at 500 ug/plate after 48 to 72 hrs in absence of S9 fraction; format: functional, Salmonella enterica subsp. enterica serovar Typhimurium; set-up: scale not given: the % may be the effect or the level left
Salmonella typhimurium [26] = assay: Mutagenic activity in Salmonella Typhimurium TA100 assessed as number of his+ revertants at 1000 ug/plate after 48 to 72 hrs by Ames test in presence of S9 fraction; format: toxicity, organism-based; details: salmonella enterica subsp. enterica serovar typhimurium
Salmonella typhimurium [27] = assay: Cytotoxicity against Salmonella Typhimurium TA98 assessed as reduction in his+ revertants number at 500 ug/plate after 48 to 72 hrs in absence of S9 fraction; format: functional, Salmonella enterica subsp. enterica serovar Typhimurium; set-up: scale not given: the % may be the effect or the level left
Salmonella typhimurium [28] = assay: Mutagenic activity in Salmonella Typhimurium TA98 assessed as number of his+ revertants at 100 ug/plate after 48 to 72 hrs by Ames test in absence of S9 fraction; format: toxicity, organism-based; details: salmonella enterica subsp. enterica serovar typhimurium
Salmonella typhimurium [29] = assay: Cytotoxicity against Salmonella Typhimurium TA97 assessed as reduction in his+ revertants number at 500 ug/plate after 48 to 72 hrs in absence of S9 fraction; format: functional, Salmonella enterica subsp. enterica serovar Typhimurium; set-up: scale not given: the % may be the effect or the level left
Salmonella typhimurium [30] = assay: Mutagenic activity in Salmonella Typhimurium TA97 assessed as number of his+ revertants at 1000 ug/plate after 48 to 72 hrs by Ames test in absence of S9 fraction; format: toxicity, organism-based; details: salmonella enterica subsp. enterica serovar typhimurium
Salmonella typhimurium [31] = assay: Mutagenic activity in Salmonella Typhimurium TA102 assessed as number of his+ revertants at 1000 ug/plate after 48 to 72 hrs by Ames test in presence of S9 fraction; format: toxicity, organism-based; details: salmonella enterica subsp. enterica serovar typhimurium
Salmonella typhimurium [32] = assay: Mutagenic activity in Salmonella Typhimurium TA100 assessed as number of his+ revertants at 500 ug/plate after 48 to 72 hrs by Ames test in absence of S9 fraction; format: toxicity, organism-based; details: salmonella enterica subsp. enterica serovar typhimurium
Salmonella typhimurium [33] = assay: Mutagenic activity in Salmonella Typhimurium TA97 assessed as number of his+ revertants at 1000 ug/plate after 48 to 72 hrs by Ames test in presence of S9 fraction; format: toxicity, organism-based; details: salmonella enterica subsp. enterica serovar typhimurium
Salmonella typhimurium [34] = assay: Cytotoxicity against Salmonella Typhimurium TA102 assessed as reduction in his+ revertants after 48 to 72 hrs in absence of S9 fraction; format: functional, Salmonella enterica subsp. enterica serovar Typhimurium; set-up: scale not given: the % may be the effect or the level left
L929 [35] = assay: Genotoxicity against mouse L929 cells assessed as number of micronuclei at 50 ug/ml; format: toxicity, cell-based
Salmonella typhimurium [36] = assay: Cytotoxicity against Salmonella Typhimurium TA102 assessed as growth inhibition oh his+ revertants after 48 to 72 hrs; format: functional, Salmonella enterica subsp. enterica serovar Typhimurium; set-up: scale not given: the % may be the effect or the level left
Salmonella typhimurium [37] = assay: Cytotoxicity against Salmonella Typhimurium TA102 assessed as reduction in his+ revertants after 48 to 72 hrs in presence of S9 fraction; format: functional, Salmonella enterica subsp. enterica serovar Typhimurium; set-up: scale not given: the % may be the effect or the level left

SMILES	Activity (Salmonella typhimurium [3])	Activity (Salmonella typhimurium [4])	Activity (Salmonella typhimurium [5])	Activity (Salmonella typhimurium [6])	Activity (Salmonella typhimurium [7])	Activity (Salmonella typhimurium [8])	Activity (Salmonella typhimurium [11])	Activity (Salmonella typhimurium [12])	Activity (Salmonella typhimurium [13])	Activity (Salmonella typhimurium [14])	Activity (Salmonella typhimurium [15])	Activity (Salmonella typhimurium [16])	Activity (Salmonella typhimurium [17])	Activity (Salmonella typhimurium [18])	Activity (Salmonella typhimurium [20])	Activity (Salmonella typhimurium [21])	Activity (Salmonella typhimurium [22])	Activity (Salmonella typhimurium [23])	Activity (Salmonella typhimurium [26])	Activity (Salmonella typhimurium [28])	further results
C/C=C/c1ccc(OC)c(OC)c1OC	200	151	343	160	167	43	212	22	203	108	335	44	20	151	236	160	100	26	132	27	Activity (Salmonella typhimurium [1]): 9%; Activity (L929 [2]): 3.79%; Activity (Salmonella typhimurium [9]): 9%; Activity (Salmonella typhimurium [10]): 9%; Activity (Salmonella typhimurium [19]): 9%; Activity (Salmonella typhimurium [24]): 23%; Activity (Salmonella typhimurium [25]): 23%; Activity (Salmonella typhimurium [27]): 23%; Activity (Salmonella typhimurium [29]): 23%; Activity (Salmonella typhimurium [30]): 131; Activity (Salmonella typhimurium [31]): 233; Activity (Salmonella typhimurium [32]): 116; Activity (Salmonella typhimurium [33]): 172
C/C=C/c1c(OC)cc(OC)cc1OC	200	163	333	195	153	18	175	32	298	138	328	24	26	190	275	156	148	22	126	32	Activity (Salmonella typhimurium [34]): 28%; Activity (L929 [35]): 3.44%; Activity (Salmonella typhimurium [36]): 28%; Activity (Salmonella typhimurium [37]): 27%; Activity (Salmonella typhimurium [30]): 223; Activity (Salmonella typhimurium [31]): 218; Activity (Salmonella typhimurium [32]): 134; Activity (Salmonella typhimurium [33]): 187
